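Cultured in 96-well plates, cells were exposed to test compound for 48 hours across five concentrations. GI50 marks 50% less growth. TGI denotes the concentration required for complete inhibition of growth.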
How the values were obtained:
Assay in all cases: inhibition of tumour cell growth, NCI panel, 48 h
[1] = system: NCI-H522 lung
[2] = system: RPMI-8226 leukemia
[3] = system: HCC-2998 colon
[4] = system: UO-31 renal
[5] = system: U251 CNS
[6] = system: UACC-257 melanoma
[7] = system: COLO 205 colon
[8] = system: SK-MEL-28 melanoma
[9] = system: MDA-MB-231 breast
[10] = system: EKVX NSCLC

SMILES: O=C1CC(C(=O)O)Cc2c(Br)ccc(O)c21 (stereo not drawn)
- TGI [1]: > 100 µM
- TGI [2]: > 100 µM
- TGI [3]: > 100 µM
- TGI [4]: > 100 µM
- TGI [5]: > 100 µM
- TGI [6]: > 100 µM
- TGI [7]: > 100 µM
- TGI [8]: > 100 µM
- TGI [9]: > 100 µM
- TGI [10]: > 100 µM

SMILES: COc1ccc(N=N/C(=N\NC(=O)c2cc(Br)ccc2O)c2ccc(N(CCC#N)CCC#N)cc2OC)cc1
- GI50 [1]: 40.1 µg/mL
- TGI [1]: 141 µg/mL
- GI50 [2]: 74.4 µg/mL
- TGI [2]: > 150 µg/mL
- GI50 [3]: 28.7 µg/mL
- TGI [3]: 66.5 µg/mL
- GI50 [4]: 59.5 µg/mL
- TGI [4]: > 150 µg/mL
- GI50 [5]: > 150 µg/mL
- TGI [5]: > 150 µg/mL
- GI50 [6]: > 150 µg/mL
- TGI [6]: > 150 µg/mL
- GI50 [7]: 50.6 µg/mL
- TGI [7]: > 150 µg/mL
- GI50 [8]: > 150 µg/mL
- TGI [8]: > 150 µg/mL
- GI50 [9]: 70.8 µg/mL
- TGI [9]: > 150 µg/mL
- GI50 [10]: > 150 µg/mL
- TGI [10]: > 150 µg/mL

SMILES: COc1cc(-c2cc(-c3cccs3)c(C#N)c(N3CCOCC3)n2)cc(OC)c1OC
- GI50 [1]: 10.3 µM
- TGI [1]: > 100 µM
- GI50 [2]: 4.07 µM
- TGI [2]: > 85.7 µM
- GI50 [3]: 21.7 µM
- TGI [3]: > 100 µM
- GI50 [4]: 5.12 µM
- TGI [4]: > 100 µM
- GI50 [5]: 4.94 µM
- TGI [5]: > 100 µM
- GI50 [6]: 3.22 µM
- TGI [6]: 9.9 µM
- GI50 [7]: 2.3 µM
- TGI [7]: 6.62 µM
- GI50 [8]: 3.83 µM
- TGI [8]: 97.2 µM
- GI50 [9]: 5.83 µM
- TGI [9]: > 100 µM
- GI50 [10]: 24.2 µM
- TGI [10]: > 100 µM

SMILES: CC(=O)OC1CC2C(C)(C)CCC[C@]2(C)C2=C1C(O)=C(C(C)C)C(=O)C2=O (stereo partly drawn)
- GI50 [1]: 1.65 µM
- TGI [1]: 3.42 µM
- GI50 [2]: 0.466 µM
- TGI [2]: 4.08 µM
- GI50 [3]: 0.228 µM
- TGI [3]: 0.546 µM
- GI50 [4]: 0.638 µM
- TGI [4]: 2.06 µM
- GI50 [5]: 0.666 µM
- TGI [5]: 21.7 µM
- GI50 [6]: 0.932 µM
- TGI [6]: 3 µM
- GI50 [7]: 1.47 µM
- TGI [7]: 3.33 µM
- GI50 [8]: 0.68 µM
- TGI [8]: 2.16 µM
- GI50 [9]: 0.477 µM
- TGI [9]: 3.74 µM
- GI50 [10]: 0.3 µM
- TGI [10]: 1.53 µM

SMILES: COC(=O)CC1C2(C)C3=C(C)C(c4ccoc4)CC3OC2C2OC(=O)C3(C)C=CC(=O)C1(C)C23 (stereo not drawn)
- TGI [1]: 3.22 µM
- TGI [2]: 1.16 µM
- TGI [3]: 2.7 µM
- TGI [4]: 2.52 µM
- TGI [5]: 2.95 µM
- TGI [6]: 5.02 µM
- TGI [7]: 3.58 µM
- TGI [8]: 2.66 µM
- TGI [9]: 2.81 µM
- TGI [10]: 3.89 µM

SMILES: Clc1ccc(-c2nc3c(-c4ccccc4)nc(-c4ccccc4)cn3c2-c2ccc(Cl)cc2)cc1
- GI50 [1]: > 100 µM
- TGI [1]: > 100 µM
- GI50 [2]: > 100 µM
- TGI [2]: > 100 µM
- GI50 [3]: > 100 µM
- TGI [3]: > 100 µM
- GI50 [4]: > 100 µM
- TGI [4]: > 100 µM
- GI50 [5]: > 100 µM
- TGI [5]: > 100 µM
- GI50 [6]: > 100 µM
- TGI [6]: > 100 µM
- GI50 [7]: > 100 µM
- TGI [7]: > 100 µM
- GI50 [8]: > 100 µM
- TGI [8]: > 100 µM
- GI50 [9]: > 100 µM
- TGI [9]: > 100 µM
- GI50 [10]: > 100 µM
- TGI [10]: > 100 µM

SMILES: Cc1cncc(-c2nc(NCCc3c[nH]c4ccccc34)c3ncn(C(C)C)c3n2)c1
- GI50 [1]: 5.66 µM
- TGI [1]: 23.2 µM
- GI50 [2]: 2.28 µM
- TGI [2]: 5.23 µM
- GI50 [3]: 4.12 µM
- TGI [3]: 15.1 µM
- GI50 [4]: 3.06 µM
- TGI [4]: 12.9 µM
- GI50 [5]: 4.96 µM
- TGI [5]: 39.6 µM
- GI50 [6]: 1.91 µM
- TGI [6]: 3.85 µM
- GI50 [7]: 2.9 µM
- TGI [7]: 7.26 µM
- GI50 [8]: 2.52 µM
- TGI [8]: 6.66 µM
- GI50 [9]: 4.3 µM
- TGI [9]: 17.6 µM
- GI50 [10]: 6.77 µM
- TGI [10]: 35.5 µM

SMILES: C=C1C(=O)O[C@@H]2C[C@@H]1CC[C@]1(C)O[C@H]1CC/C(C)=C/CC[C@@]2(C)O
- GI50 [1]: 27.2 µM
- TGI [1]: > 100 µM
- GI50 [2]: 6.58 µM
- TGI [2]: > 100 µM
- GI50 [3]: 10.6 µM
- TGI [3]: 23.6 µM
- GI50 [4]: 29.5 µM
- TGI [4]: > 100 µM
- GI50 [5]: 15.5 µM
- TGI [5]: 28.9 µM
- GI50 [6]: 11.3 µM
- TGI [6]: 31.8 µM
- GI50 [7]: 18.1 µM
- TGI [7]: 34.8 µM
- GI50 [9]: 21.4 µM
- TGI [9]: 48.8 µM
- GI50 [10]: 23.4 µM
- TGI [10]: 80.2 µM

SMILES: O=C(Nc1ccn(C2CC(I)C(COC(c3ccccc3)(c3ccccc3)c3ccccc3)O2)c(=O)n1)c1ccccc1 (stereo not drawn)
- TGI [1]: 21.5 µM
- TGI [2]: 17 µM
- TGI [3]: 21.5 µM
- TGI [4]: 12.8 µM
- TGI [5]: 14.5 µM
- TGI [6]: 20.4 µM
- TGI [7]: 12.8 µM
- TGI [8]: 16.2 µM
- TGI [9]: 17.9 µM
- TGI [10]: 21.5 µM

SMILES: CN1CCN(Cc2ccc(NC(=O)c3cncc(C#Cc4c(N)ncc5c(F)cccc45)c3)cc2C(F)(F)F)CC1
- GI50 [1]: 0.75 µM
- TGI [1]: 1.66 µM
- GI50 [2]: 0.991 µM
- TGI [2]: 2.37 µM
- GI50 [3]: 0.821 µM
- TGI [3]: 1.56 µM
- GI50 [4]: 0.712 µM
- TGI [4]: 1.42 µM
- GI50 [5]: 0.725 µM
- TGI [5]: 1.42 µM
- GI50 [6]: 0.854 µM
- TGI [6]: 1.76 µM
- GI50 [7]: 0.638 µM
- TGI [7]: 1.42 µM
- GI50 [8]: 0.831 µM
- TGI [8]: 1.56 µM
- GI50 [9]: 0.522 µM
- TGI [9]: 1.17 µM
- GI50 [10]: 0.732 µM
- TGI [10]: 1.46 µM

SMILES: COc1cc(N2CCN(C(C)C)CC2)ccc1Nc1nc(Nc2ccc(F)cc2C(=O)NCC(O)CO)c2cc[nH]c2n1 (stereo not drawn)
- GI50 [1]: 4.79 µM
- TGI [1]: > 25 µM
- GI50 [2]: 15 µM
- TGI [2]: > 25 µM
- GI50 [3]: 7.21 µM
- TGI [3]: > 25 µM
- GI50 [4]: > 25 µM
- TGI [4]: > 25 µM
- GI50 [5]: 5.22 µM
- TGI [5]: > 25 µM
- GI50 [6]: 2.87 µM
- TGI [6]: > 25 µM
- GI50 [7]: 0.526 µM
- TGI [7]: > 9.9 µM
- GI50 [8]: > 25 µM
- TGI [8]: > 25 µM
- GI50 [9]: 13.6 µM
- TGI [9]: > 25 µM
- GI50 [10]: > 13.8 µM
- TGI [10]: > 25 µM

SMILES: Cc1ccc(/C=C(/C#N)n2nnc3ncccc32)cc1
- GI50 [1]: 0.255 µM
- TGI [1]: 0.878 µM
- GI50 [2]: 3 µM
- TGI [2]: 9.73 µM
- GI50 [3]: 3.37 µM
- TGI [3]: 12.2 µM
- GI50 [4]: 2.01 µM
- TGI [4]: 12.4 µM
- GI50 [5]: 3.41 µM
- TGI [5]: 14.1 µM
- GI50 [6]: 4.24 µM
- TGI [6]: 22.2 µM
- GI50 [7]: 2.25 µM
- TGI [7]: 10.5 µM
- GI50 [8]: 2.17 µM
- TGI [8]: 31.3 µM
- GI50 [9]: 2.41 µM
- TGI [9]: 8.44 µM
- GI50 [10]: 2.88 µM
- TGI [10]: 26.9 µM

Reference: PubChem BioAssay (NCI)
